Paper PMC10508631, “Development of an antibody fused with an antimicrobial peptide targeting Pseudomonas aeruginosa: A new approach to prevent and treat bacterial infections” (PLOS Pathogens, 2023)
Converted amounts (≈) assume the structure as drawn. Read-outs that look alike come from different tables or passages of the source. Where a SMILES comes first, the peptide text is derived from it.

Columns and labels:
P. aeruginosa ATCC 27853 [1] = type: cell-based, Pseudomonas aeruginosa
Procedure: (§1) All plates were placed at 37°C overnight.

P. aeruginosa ATCC 39324 = type: cell-based, Pseudomonas aeruginosa
Procedure: as §1

293T human cell line = assay: Mammalian cell cytotoxicity (CellTiter Glo); type: cell-based
Procedure: On day one, cells from an established 293T human cell line were seeded onto 96-well flat-bottom white plates (10,000 293T cells/well). On day two, dilution plates were prepared by diluting compound in cell growth medium to two times the final starting concentration and then carrying out serial two-fold dilutions across the plate. Medium from the cell growth assay plates was then aspirated, and 50 μl from the compound dilution plates were transferred to the assay plates. Fifty microliters of fresh media were then added to all the wells. The plates were incubated at 37°C, 5% CO2 for three days. […]. Media from the assay plates was aspirated, and 100 μl of CellTiter Glo/growth media mix was added to all wells. After five minutes, luminescence was read, and% inhibition vs. compound concentration was plotted.

S. aureus 29213 = test system: S. aureus 29213
Procedure: (§2) MICs and a killing assay were performed in this study. MICs were determined according to CLSI guidelines, using 2-fold serial compound dilutions in 96-well microtiter plates. Briefly, compounds were diluted in water across a mother plate and then 2 μl were stamped to assay plates—one plate for each strain to be tested. Bacterial strains were sub-cultured overnight on agar plates at 37°C. […] These concentrated cultures were diluted 1:200 in growth media to approximately 5 x 10^5 cells/ml. All assay plates received 100 μL diluted culture per well. All plates were placed at 37°C overnight. […] Wells at and above the MIC should appear devoid of growth when visualized.

P. aeruginosa ATCC 27853 [2] = assay: Synergy with antibiotics (MIC); type: cell-based, Pseudomonas aeruginosa; settings: for MIC of the antibiotic alone: P. aeruginosa ATCC 27853; for MIC of the antibiotic in the presence of VSX-1: increasing amounts of VSX-1 (from 0.015 to 4 μg/mL), Fig 4 legend says P297
Procedure: as §1

E. coli ATCC 25922 = settings: CLSI microdilution, 2-fold dilutions, ~5 x 10^5 cells/ml, 37°C, 18 hours; MIC = at least 80% growth inhibition
Procedure: as §2

[3] = CLSI microdilution, 2-fold dilutions, ~5 x 10^5 cells/ml, 37°C, 18 hours, MIC = lowest concentration inhibiting growth by at least 80%
[4] = CLSI microdilution, 2-fold dilutions, ~5 x 10^5 cells/ml, 37°C, 18 hours, MIC = at least 80% growth inhibition
[5] = 293T cells, 10,000 cells/well, three days, 37°C, CellTiter Glo luminescence

Compound: CC[C@H](C)[C@H](NC(=O)[C@@H](NC(=O)[C@@H]1CCCN1C(=O)[C@H](CO)NC(=O)[C@H](CC(C)C)NC(=O)[C@H](CCCCN)NC(=O)[C@H](CCCCN)NC(=O)[C@H](Cc1ccccc1)NC(=O)[C@H](CC(C)C)NC(=O)[C@H](CCCCN)NC(=O)[C@H](CCCCN)NC(=O)[C@H](Cc1ccccc1)NC(=O)[C@H](CCCCN)NC(=O)[C@H](CCCCN)NC(=O)[C@H](CCCNC(=N)N)NC(=O)[C@H](Cc1ccccc1)NC(=O)[C@H](CCCNC(=N)N)NC(=O)[C@H](CCCCN)NC(=O)[C@H](Cc1ccccc1)NC(=O)[C@H](CCCNC(=N)N)NC(=O)CNC(=O)CNC(=O)CNC(=O)CN)C(C)C)C(=O)N1CCC[C@H]1C(=O)N[C@@H](CC(C)C)C(=O)N[C@@H](CC(C)C)C(=O)N[C@@H](Cc1c[nH]cn1)C(=O)N[C@@H](CC(C)C)C(=O)NCC(=O)O [P295] (H-GGGGRFKRFRKKFKKLFKKLSPVIPLLHLG-OH)
- MIC P. aeruginosa ATCC 27853 (P. aeruginosa ATCC 27853 [1]; ATCC 27853, 18 h): 4 µg/mL (≈ 1.16 µM)
- MIC P. aeruginosa ATCC 39324 (P. aeruginosa ATCC 39324; ATCC 39324, 18 h): 4 µg/mL (≈ 1.16 µM)
- Cytotox CC50 (293T human cell line): 95 µg/mL

Compound: CC[C@H](C)[C@H](NC(=O)[C@H](CCCCN)NC(=O)[C@H](CCCNC(=N)N)NC(=O)CNC(=O)[C@H](CC(C)C)NC(=O)[C@H](CCCNC(=N)N)NC(=O)[C@H](CCCNC(=N)N)NC(=O)[C@H](CC(C)C)NC(=O)CNC(=O)[C@H](CCCNC(=N)N)NC(=O)CNC(=O)CNC(=O)CN)C(=O)N[C@@H](C)C(=O)N[C@@H](Cc1c[nH]cn1)C(=O)NCC(=O)N[C@H](C(=O)N[C@@H](CCCCN)C(=O)N[C@@H](CCCCN)C(=O)N[C@@H](Cc1ccc(O)cc1)C(=O)NCC(=O)N1CCC[C@H]1C(=O)N[C@H](C(=O)N[C@H](C(=O)N[C@@H](CC(C)C)C(=O)N[C@@H](CCCNC(=N)N)C(=O)N[C@H](C(=O)N[C@H](C(=O)N[C@@H](CCCCN)C(=O)N[C@@H](CCCCN)C(=O)N[C@@H](Cc1ccc(O)cc1)C(=O)NCC(=O)O)[C@@H](C)CC)[C@@H](C)CC)C(C)C)[C@@H](C)O)C(C)C [P294] (H-GGGRGLRRLGRKIAHGVKKYGPTVLRIIKKYG-OH)
- MIC P. aeruginosa ATCC 39324 (P. aeruginosa ATCC 39324; ATCC 39324, 18 h): 2 µg/mL (≈ 0.57 µM)

Compound: CC[C@H](C)[C@H](NC(=O)[C@@H](NC(=O)[C@@H]1CCCN1C(=O)[C@H](CO)NC(=O)[C@H](CC(C)C)NC(=O)[C@H](CCCCN)NC(=O)[C@H](CCCCN)NC(=O)[C@H](Cc1ccccc1)NC(=O)[C@H](CC(C)C)NC(=O)[C@H](CCCCN)NC(=O)[C@H](CCCCN)NC(=O)[C@H](Cc1ccccc1)NC(=O)[C@H](CCCCN)NC(=O)[C@H](CCCCN)NC(=O)[C@H](CCCNC(=N)N)NC(=O)[C@H](Cc1ccccc1)NC(=O)[C@H](CCCNC(=N)N)NC(=O)[C@H](CCCCN)NC(=O)[C@H](Cc1ccccc1)NC(=O)[C@H](CCCNC(=N)N)NC(=O)CNC(=O)CNC(=O)CNC(=O)CN)C(C)C)C(=O)N1CCC[C@H]1C(=O)N[C@@H](CC(C)C)C(=O)N[C@@H](CC(C)C)C(=O)N[C@@H](Cc1c[nH]cn1)C(=O)N[C@@H](CC(C)C)C(=O)NCC(=O)O [P267] (H-GGGGRFKRFRKKFKKLFKKLSPVIPLLHLG-OH)
- MIC P. aeruginosa ATCC 27853 (P. aeruginosa ATCC 27853 [1]; ATCC 27853, 18 h): 4 µg/mL (≈ 1.16 µM)
- MIC P. aeruginosa ATCC 39324 (P. aeruginosa ATCC 39324; ATCC 39324, 18 h): 4 µg/mL (≈ 1.16 µM)
- MIC S. aureus 29213 (S. aureus 29213; 29213, 18 h): 16 µg/mL (≈ 4.63 µM)

Compound: C[C@@H](O)[C@H]1C(=O)N2C(C(=O)O)=C(S[C@@H]3CN[C@H](C(=O)N(C)C)C3)[C@H](C)[C@H]12 [meropenem]
- MIC of the antibiotic alone (P. aeruginosa ATCC 27853 [2]): 0.5 µg/mL
- MIC of the antibiotic in the presence of VSX-1 (P. aeruginosa ATCC 27853 [2]): < 0.1 µg/mL

Compound: CSCC[C@H](NC(=O)[C@H](CO)NC(=O)[C@H](C)NC(=O)[C@H](C)NC(=O)[C@H](C)NC(=O)[C@H](C)NC(=O)[C@H](C)NC(=O)[C@H](C)NC(=O)[C@H](C)NC(=O)[C@H](CC(N)=O)NC(=O)[C@H](C)NC(=O)[C@H](C)NC(=O)[C@@H](NC(=O)[C@H](CC(C)C)NC(=O)[C@H](C)NC(=O)[C@H](C)NC(=O)[C@H](C)NC(=O)[C@H](C)NC(=O)[C@H](C)NC(=O)[C@H](C)NC(=O)[C@H](CC(=O)O)NC(=O)[C@H](CO)NC(=O)[C@H](C)NC(=O)[C@@H](NC(=O)[C@H](Cc1c[nH]cn1)NC(=O)CNC(=O)CNC(=O)CN)[C@@H](C)O)[C@@H](C)O)C(=O)N[C@@H](C)C(=O)O [P292] (H-GGGHTASDAAAAAALTAANAAAAAAASMA-OH)
- MIC P. aeruginosa ATCC 27853 (P. aeruginosa ATCC 27853 [1]; [3]): > 128 µg/mL
- MIC P. aeruginosa ATCC 39324 (P. aeruginosa ATCC 39324; [4]): > 128 µg/mL
- MIC S. aureus 29213 (S. aureus 29213; [4]): > 128 µg/mL
- MIC E. coli ATCC 25922 (E. coli ATCC 25922): > 128 µg/mL
- Cytotox CC50 (293T human cell line; [5]): 250 µg/mL

Compound: colistin
- MIC of the antibiotic alone (P. aeruginosa ATCC 27853 [2]): ~ 1 μg/ml
- MIC of the antibiotic in the presence of VSX-1 (P. aeruginosa ATCC 27853 [2]): < 0.1 µg/mL

Compound: NC[C@H]1O[C@H](O[C@H]2[C@H](O)[C@@H](O[C@H]3O[C@H](CO)[C@@H](O)[C@H](N)[C@H]3O)[C@H](N)C[C@@H]2N)[C@H](N)C[C@@H]1O [tobramycin]
- synergy: MIC of the antibiotic in the presence of P297 (P. aeruginosa ATCC 27853 [2]; Fig 4 legend): did not exhibit an enhanced MIC

Compound: CC[C@H](C)[C@H](NC(=O)[C@@H](NC(=O)[C@H](CCCNC(=N)N)NC(=O)[C@@H]1CCCN1C(=O)[C@H](CCCCN)NC(=O)[C@H](CCCCN)NC(=O)[C@H](Cc1ccccc1)NC(=O)[C@H](Cc1ccccc1)NC(=O)[C@H](CCCCN)NC(=O)[C@H](CCCCN)NC(=O)[C@H](C)NC(=O)[C@H](CCCNC(=N)N)NC(=O)[C@H](CCCCN)NC(=O)[C@H](CCCCN)NC(=O)[C@@H](NC(=O)[C@H](CO)NC(=O)[C@H](CC(N)=O)NC(=O)[C@H](CCCCN)NC(=O)[C@H](CC(C)C)NC(=O)[C@H](CCCCN)NC(=O)[C@H](CCCCN)NC(=O)[C@H](Cc1ccccc1)NC(=O)[C@H](Cc1ccccc1)NC(=O)[C@H](CCCCN)NC(=O)[C@H](CCCCN)NC(=O)[C@H](Cc1ccccc1)NC(=O)[C@H](CCCNC(=N)N)NC(=O)[C@H](CCCCN)NC(=O)CNC(=O)CNC(=O)CN)C(C)C)C(C)C)C(=O)NCC(=O)N[C@H](C(=O)N[C@@H](CO)C(=O)N[C@H](C(=O)N1CCC[C@H]1C(=O)N[C@@H](Cc1ccccc1)C(=O)O)[C@@H](C)CC)C(C)C [P296] (H-GGGKRFKKFFKKLKNSVKKRAKKFFKKPRVIGVSIPF-OH)
- MIC P. aeruginosa ATCC 27853 (P. aeruginosa ATCC 27853 [1]; [3]): 4 µg/mL (≈ 0.925 µM)
- MIC P. aeruginosa ATCC 39324 (P. aeruginosa ATCC 39324; [4]): 2 µg/mL (≈ 0.462 µM)
- Cytotox CC50 (293T human cell line; [5]): 400 µg/mL

Compound: CC[C@H](C)[C@H](NC(=O)[C@H](CCCCN)NC(=O)[C@H](CCCCN)NC(=O)[C@H](CC(C)C)NC(=O)[C@H](CCCCN)NC(=O)[C@H](CCC(=O)O)NC(=O)[C@H](CCCCN)NC(=O)[C@@H](NC(=O)[C@H](CCCCN)NC(=O)[C@H](CC(N)=O)NC(=O)[C@H](CCCNC(=N)N)NC(=O)[C@H](Cc1ccccc1)NC(=O)[C@H](CCCCN)NC(=O)[C@H](CCCNC(=N)N)NC(=O)[C@H](CC(C)C)NC(=O)[C@H](CCCNC(=N)N)NC(=O)[C@H](CCCCN)NC(=O)[C@H](CCCNC(=N)N)NC(=O)[C@H](CC(C)C)NC(=O)CNC(=O)CNC(=O)CNC(=O)CN)[C@@H](C)CC)C(=O)NCC(=O)N[C@@H](CCC(N)=O)C(=O)N[C@@H](CCCCN)C(=O)N[C@H](C(=O)N[C@@H](CCC(N)=O)C(=O)NCC(=O)N[C@@H](CC(C)C)C(=O)N[C@@H](CC(C)C)C(=O)N1CCC[C@H]1C(=O)N[C@@H](CCCCN)C(=O)N[C@@H](CC(C)C)C(=O)N[C@@H](C)C(=O)O)[C@@H](C)CC [P271] (H-GGGGLRKRLRKFRNKIKEKLKKIGQKIQGLLPKLA-OH)
- MIC P. aeruginosa ATCC 39324 (P. aeruginosa ATCC 39324; [4]): 8 µg/mL (≈ 2.01 µM)
- Cytotox CC50 (293T human cell line; [5]): 250 µg/mL

Compound: CC[C@H](C)[C@H](NC(=O)CNC(=O)CNC(=O)CNC(=O)CN)C(=O)NCC(=O)N[C@@H](CCCCN)C(=O)N[C@@H](Cc1ccccc1)C(=O)N[C@@H](CC(C)C)C(=O)N[C@@H](CCCCN)C(=O)N[C@@H](CCCCN)C(=O)N[C@@H](C)C(=O)N[C@@H](CCCCN)C(=O)N[C@@H](CCCCN)C(=O)N[C@@H](Cc1ccccc1)C(=O)NCC(=O)N[C@@H](CCCCN)C(=O)N[C@@H](C)C(=O)N[C@@H](Cc1ccccc1)C(=O)N[C@H](C(=O)N[C@@H](CCCCN)C(=O)N[C@H](C(=O)N[C@@H](CC(C)C)C(=O)N[C@@H](CCCCN)C(=O)N[C@@H](CCCCN)C(=O)O)[C@@H](C)CC)C(C)C [P261] (H-GGGGIGKFLKKAKKFGKAFVKILKK-OH)
- MIC P. aeruginosa ATCC 39324 (P. aeruginosa ATCC 39324; [4]): 8 µg/mL (≈ 3.02 µM)
- Cytotox CC50 (293T human cell line; [5]): 250 µg/mL
